According to patent publication US9108983B2, “Pyrrole compounds, a process for their preparation and pharmaceutical compositions containing them” (LES LABORATOIRES SERVIER, priority 2013, dated 2015):
Structures can show the parent of a compound that is named as a salt. Where two headings read alike, the source gives them in different places.

Experiments:
[1] = system: RS4;11 leukaemia tumour line; test: In vitro cytotoxicity (Microculture Tetrazolium Assay); format: cell-based; conditions: Homo sapiens, RS4;11 cells, exposed for 48 hours, cell viability, read-out: IC50 (nM) MTT RS4;11
Procedure: The cytotoxicity studies were carried out on the RS4;11 leukaemia tumour line.
The cells are distributed onto microplates and exposed to the test compounds for 48 hours.
The cell viability is then quantified by a colorimetric assay, the Microculture Tetrazolium Assay (Cancer Res., 1987, 47, 939-942).

[2] = system: cleaved (activated) form of caspase 3 in RS4;11 leukaemia cell xenograft tumours; test: Quantification of the cleaved form of caspase 3 in vivo (MSD ELISA); design: species or system mice (SCID strain); conditions: Mus musculus, cleaved caspase 3 MSD test, oral route, tumour removed after 2 hours, read-out: Activation factor ± SEM (versus control)
Procedure: The ability of the compounds of the invention to activate caspase 3 is evaluated in a xenograft model of RS4;11 leukaemia cells.
1×10^7 RS4;11 cells are grafted sub-cutaneously into immunosuppressed mice (SCID strain). 25 to 30 days after the graft, the animals are treated orally with the various compounds. After treatment, the tumour masses are recovered and lysed, and the cleaved (activated) form of caspase 3 is quantified in the tumour lysates.
The quantification is carried out using the “Meso Scale Discovery (MSD) ELISA platform” test, which specifically assays the cleaved form of caspase 3. It is expressed in the form of an activation factor corresponding to the ratio between the quantity of cleaved caspase 3 in the treated mice divided by the quantity of cleaved caspase 3 in the control mice.

Bcl-2 protein = Bcl-2 protein (histag-Bcl-2, UniProtKB P10415) (Homo sapiens (Human), UniProt P10415); test: Inhibition of Bcl-2 by the fluorescence polarisation technique; format: binding; conditions: incubation for 2 hours, read-out: IC50 (nM) Bcl-2 FP
Bcl-2 protein, sequence (P10415 whole entry): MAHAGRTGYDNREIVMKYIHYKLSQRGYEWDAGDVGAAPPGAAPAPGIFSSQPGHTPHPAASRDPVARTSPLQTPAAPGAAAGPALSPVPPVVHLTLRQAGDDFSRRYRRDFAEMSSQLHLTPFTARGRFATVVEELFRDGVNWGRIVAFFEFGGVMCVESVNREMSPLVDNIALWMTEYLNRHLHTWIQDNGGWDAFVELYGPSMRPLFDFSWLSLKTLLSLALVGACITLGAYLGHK
How it was run: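 Fluorescence polarisation competition: His-tagged Bcl-2 (2.50×10^−8 M final) with fluorescein-labelled peptide (1.00×10^−8 M final) in 10 mM Hepes, 150 mM NaCl, 0.05% Tween20, pH 7.4. Increasing compound concentrations were added. Polarisation was read after 2 h incubation.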

SMILES	IC50 ([1]; RS4-11, 48 h) [nM]	fold induction at 25 mg/kg [2]	IC50 (Bcl-2 protein) [nM]	IC50 [1] [nM]
Cc1c(C(=O)N(c2ccc(O)cc2)c2cnn(C)c2)cc(-c2cc3c(cc2C(=O)N2Cc4ccccc4C[C@H]2CN2CCOCC2)OCO3)n1C [Example 47, N-(4-Hydroxyphenyl)-1,2-dimethyl-N-(1-methyl-1H-pyrazol-4-yl)-5-(6-{[(3S)-3-(morpholin-4-ylmethyl)-3,4-dihydroisoquinolin-2(1H)-yl]carbonyl}-1,3-benzodioxol-5-yl)-1H-pyrrole-3-carboxamide hydrochloride]	44.5	12.3 ± 2.4	5.9	
Cc1c(C(=O)N(c2ccc(O)cc2)c2cc(C#N)n(C)c2)cc(-c2cc(F)ccc2C(=O)N2Cc3ccccc3C[C@H]2CN2CCOCC2)n1C [Example 230, N-(5-Cyano-1-methyl-1H-pyrrol-3-yl)-5-(5-fluoro-2-{[(3S)-3-(morpholin-4-ylmethyl)-3,4-dihydroisoquinolin-2(1H)-yl]carbonyl}phenyl)-N-(4-hydroxyphenyl)-1,2-dimethyl-1H-pyrrole-3-carboxamide hydrochloride]	18.3	42.2 ± 9.3	5.1	
Cc1c(C(=O)N(c2ccc(O)cc2)c2cnn(C)c2)cc(-c2cc(Cl)ccc2C(=O)N2Cc3ccccc3C[C@H]2CN2CCOCC2)n1C [Example 25, 5-(5-Chloro-2-{[(3S)-3-(morpholin-4-ylmethyl)-3,4-dihydroisoquinolin-2(1H)-yl]carbonyl}phenyl)-N-(4-hydroxyphenyl)-1,2-dimethyl-N-(1-methyl-1H-pyrazol-4-yl)-1H-pyrrole-3-carboxamide hydrochloride]	33.3	45.7 ± 2	4	
Cc1c(C(=O)N(c2ccc(O)cc2)c2cnc3c(ccn3C)c2)cc(-c2cc(Cl)ccc2C(=O)N2Cc3ccccc3C[C@H]2CN2CCOCC2)n1C [Example 71, 5-(5-Chloro-2-{[(3S)-3-(morpholin-4-ylmethyl)-3,4-dihydroisoquinolin-2(1H)-yl]carbonyl}phenyl)-N-(4-hydroxyphenyl)-1,2-dimethyl-N-(1-methyl-1H-pyrrolo[2,3-b]pyridin-5-yl)-1H-pyrrole-3-carboxamide hydrochloride]	12.9	46.8 ± 16.1	6.1	
Cc1c(C(=O)N(c2ccc(O)cc2)c2cnc3c(c2)CCN3C)cc(-c2cc(Cl)ccc2C(=O)N2Cc3ccccc3C[C@H]2CN2CCOCC2)n1C [Example 388, 5-(5-Chloro-2-{[(3S)-3-(morpholin-4-ylmethyl)-3,4-dihydroisoquinolin-2(1H)-yl]carbonyl}phenyl)-N-(4-hydroxyphenyl)-1,2-dimethyl-N-(1-methyl-2,3-dihydro-1H-pyrrolo[2,3-b]pyridin-5-yl)-1H-pyrrole-3-carboxamide dihydrochloride]	16.5	85.7 ± 3.7	3.6	
Cl.[2H]C([2H])([2H])n1cc(N(C(=O)c2cc(-c3cc(Cl)ccc3C(=O)N3Cc4ccccc4C[C@H]3CN3CCOCC3)n(C)c2C)c2ccc(O)cc2)cc1C#N [Example 448, 5-(5-Chloro-2-{[(3S)-3-(morpholin-4-ylmethyl)-3,4-dihydroisoquinolin-2(1H)-yl]carbonyl}phenyl)-N-[5-cyano-1-(trideuteriomethyl)-1H-pyrrol-3-yl]-N-(4-hydroxyphenyl)-1,2-dimethyl-1H-pyrrole-3-carboxamide hydrochloride]	12.1		2.4	
Cc1ccc(OC(=O)NCc2ccc(-c3cc(C(=O)N(C)c4ccc(O)cc4)c(C)n3C)c(C(=O)N3Cc4ccccc4C[C@H]3C)c2)cc1 [Example 66, 4-Methylphenyl (4-{4-[(4-hydroxyphenyl)(methyl)carbamoyl]-1,5-dimethyl-1H-pyrrol-2-yl}-3-{[(3R)-3-methyl-3,4-dihydroisoquinolin-2(1H)-yl]-carbonyl}benzyl)carbamate]			16.9	241
Cc1c(C(=O)N(c2ccccc2)c2cnc3c(c2)CCN3C)cc(-c2cc(Cl)ccc2C(=O)N2Cc3ccccc3C[C@H]2CN2CCOCC2)n1C [Example 129, 5-(5-Chloro-2-{[(3S)-3-(morpholin-4-ylmethyl)-3,4-dihydroisoquinolin-2(1H)-yl]carbonyl}phenyl)-1,2-dimethyl-N-(1-methyl-2,3-dihydro-1H-pyrrolo[2,3-b]-pyridin-5-yl)-N-phenyl-1H-pyrrole-3-carboxamide]	275		18.1	
Cc1c(C(=O)N(c2ccc(O)cc2)c2cnn(C)c2)cc(-c2cc3c(cc2C(=O)N2Cc4ccccc4C[C@H]2C)OCO3)n1CCN(C)C [Example 27, 1-[2-(Dimethylamino)ethyl]-N-(4-hydroxyphenyl)-2-methyl-5-(6-{[(3R)-3-methyl-3,4-dihydroisoquinolin-2(1H)-yl]carbonyl}-1,3-benzodioxol-5-yl)-N-(1-methyl-1H-pyrazol-4-yl)-1H-pyrrole-3-carboxamide hydrochloride]	93.4		5.2	
Cc1c(C(=O)N(c2ccc(O)c(F)c2)c2cnn(C)c2)cc(-c2cc(Cl)ccc2C(=O)N2Cc3ccccc3C[C@H]2CN2CCOCC2)n1C [Example 399, 5-(5-Chloro-2-{[(3S)-3-(morpholin-4-ylmethyl)-3,4-dihydroisoquinolin-2(1H)-yl]carbonyl}phenyl)-N-(3-fluoro-4-hydroxyphenyl)-1,2-dimethyl-N-(1-methyl-1H-pyrazol-4-yl)-1H-pyrrole-3-carboxamide hydrochloride]	155		9.9	
Cc1c(C(=O)N(c2ccc(O)cc2)c2cnn(C)c2)cc(-c2cc3c(cc2C(=O)N2Cc4ccccc4C[C@H]2CN2CCOCC2)OCO3)n1CCF [Example 94, 1-(2-Fluoroethyl)-N-(4-hydroxyphenyl)-2-methyl-N-(1-methyl-1H-pyrazol-4-yl)-5-(6-{[(3S)-3-(morpholin-4-ylmethyl)-3,4-dihydroisoquinolin-2(1H)-yl]carbonyl}-1,3-benzodioxol-5-yl)-1H-pyrrole-3-carboxamide hydrochloride]	104		8.6	
Cc1c(C(=O)N(c2ccncc2)c2ccc(O)cc2)cc(-c2cc3c(cc2C(=O)N2Cc4ccccc4C[C@H]2C)OCO3)n1C [Example 61, N-(4-Hydroxyphenyl)-1,2-dimethyl-5-(6-{[(3R)-3-methyl-3,4-dihydroisoquinolin-2(1H)-yl]carbonyl}-1,3-benzodioxol-5-yl)-N-(pyridin-4-yl)-1H-pyrrole-3-carboxamide hydrochloride]	37.8		4.5	
Cc1c(C(=O)N(c2ccc(O)cc2)c2cnn(C)c2)cc(-c2cc3c(cc2C(=O)N2Cc4ccccc4C[C@H]2CN2CCOCC2)OCCO3)n1C [Example 21, N-(4-Hydroxyphenyl)-1,2-dimethyl-N-(1-methyl-1H-pyrazol-4-yl)-5-(7-{[(3S)-3-(morpholin-4-ylmethyl)-3,4-dihydroisoquinolin-2(1H)-yl]carbonyl}-2,3-dihydro-1,4-benzodioxin-6-yl)-1H-pyrrole-3-carboxamide hydrochloride]	79.9		4.7	
Cc1c(C(=O)N(c2ccc(O)cc2)c2cnn(C)c2)cc(-c2ccccc2C(=O)N2Cc3ccccc3C[C@H]2CN2CCOCC2)n1C [Example 422, N-(4-Hydroxyphenyl)-1,2-dimethyl-N-(1-methyl-1H-pyrazol-4-yl)-5-(2-{[(3S)-3-(morpholin-4-ylmethyl)-3,4-dihydroisoquinolin-2(1H)-yl]carbonyl}phenyl)-1H-pyrrole-3-carboxamide hydrochloride]	101		9.2	
COc1ccc(C(=O)N2Cc3ccccc3C[C@H]2CN2CCOCC2)c(-c2cc(C(=O)N(c3ccc(O)cc3)c3cc(C#N)n(C)c3C)c(C)n2C)c1 [Example 408, N-(5-Cyano-1,2-dimethyl-1H-pyrrol-3-yl)-N-(4-hydroxyphenyl)-5-(5-methoxy-2-{[(3S)-3-(morpholin-4-ylmethyl)-3,4-dihydroisoquinolin-2(1H)-yl]carbonyl}phenyl)-1,2-dimethyl-1H-pyrrole-3-carboxamide hydrochloride]	4.46		5.4	
COc1ncc(N(C(=O)c2cc(-c3cc(F)ccc3C(=O)N3Cc4ccccc4C[C@H]3CN3CCOCC3)n(C)c2C)c2ccc(O)cc2)cn1 [Example 426, 5-(5-Fluoro-2-{[(3S)-3-(morpholin-4-ylmethyl)-3,4-dihydroisoquinolin-2(1H)-yl]carbonyl}phenyl)-N-(4-hydroxyphenyl)-N-(2-methoxypyrimidin-5-yl)-1,2-dimethyl-1H-pyrrole-3-carboxamide]	139		5.2	
Cc1c(C(=O)N(c2ccc(O)cc2)c2cnn(C)c2)cc(-c2cc3c(cc2C(=O)N2Cc4ccccc4C[C@H]2C)OCO3)n1CCO [Example 23, 1-(2-Hydroxyethyl)-N-(4-hydroxyphenyl)-2-methyl-5-(6-{[(3R)-3-methyl-3,4-dihydroisoquinolin-2(1H)-yl]carbonyl}-1,3-benzodioxol-5-yl)-N-(1-methyl-1H-pyrazol-4-yl)-1H-pyrrole-3-carboxamide]	25.4		3.6	
